Results published in patent US6784201B2, “Benzothiepines having activity as inhibitors of ileal bile acid transport and taurocholate uptake” (G.D. Searle & Company, priority 1994, dated 2004).
Read-outs that look alike come from different tables or passages of the source. Blank lines part the entries; values can stand above or below the molecule they belong to.

Assays:
human IBAT = target: T1, human IBAT (Homo sapiens, UniProt Q12908); test: In vitro assay of IBAT-mediated uptake of [14C]-taurocholate (TC) in H14 cells; type: cell-based
T1 construct: expressed in transfected cells; host or cells: Baby hamster kidney (BHK) cells, clone H14
T1 sequence (Q12908 1-348): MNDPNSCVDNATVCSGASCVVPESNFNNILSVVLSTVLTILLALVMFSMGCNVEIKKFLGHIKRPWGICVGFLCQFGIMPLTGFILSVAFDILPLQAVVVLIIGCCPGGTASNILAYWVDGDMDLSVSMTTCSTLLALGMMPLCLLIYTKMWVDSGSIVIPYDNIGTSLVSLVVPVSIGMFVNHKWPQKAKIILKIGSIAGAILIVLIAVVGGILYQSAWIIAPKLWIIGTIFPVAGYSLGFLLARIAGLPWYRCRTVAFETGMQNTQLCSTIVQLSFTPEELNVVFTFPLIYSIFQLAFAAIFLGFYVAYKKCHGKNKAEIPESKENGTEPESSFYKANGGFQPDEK
Procedure, shortened: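 BHK cells stably expressing human IBAT (H14) were incubated 2 h at 37° C with compound and 3 μM final [14C]-taurocholate in DMEM (4.5 g/L glucose) plus 0.2% fatty acid-free BSA. After cold PBS washes, cell-associated radioactivity was measured by scintillation counting.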

H14 cells = test: In vitro assay of uptake of [14C]-alanine; type: cell-based, hamster; details: Mesocricetus auratus
Procedure: Baby hamster kidney cells (BHK) transfected with the cDNA of human IBAT (H14 cells) are seeded at 60,000 cells/well in 96 well Top-Count tissue culture plates for assays run within in 24 hours of seeding, 30,000 cells/well for assays run within 48 hours, and 10,000 cells/well for assays run within 72 hours.
On the day of assay, the cell monolayer is gently washed once with 100 μl assay buffer (Dulbecco's Modified Eagle's medium with 4.5 g/L glucose+0.2% (w/v) fatty acid free bovine serum albumin-(FAF)BSA). To each well 50 μl of a two-fold concentrate of test compound in assay buffer is added along with 50 μl of 6 μM [^14C]-taurocholate in assay buffer (final concentration of 3 μM [^14C]-taurocholate). The cell culture plates are incubated 2 hours at 37° C. prior to gently washing each well twice with 100 μl 4° C. Dulbecco's phosphate-buffered saline (PBS) containing 0.2% (w/v) (FAF)BSA. The wells are then gently washed once with 100 μl 4° C. PBS without (FAF)BSA. To each 200 μl of liquid scintillation counting fluid is added, the plates are heat sealed and shaken for 30 minutes at room temperature prior to measuring the amount of radioactivity in each well on a Packard Top-Count instrument.
In Vitro Assay of Compounds that Inhibit Uptake of [^14C3-Alanine
The alanine uptake assay is performed in an identical fashion to the taurocholate assay, with the exception that labeled alanine is substituted for the labeled taurocholate.

[1] = tested on: Rat Ileal Uptake of [14C]-Taurocholate; test: In vivo assay of rat ileal uptake of [14C]-taurocholate into bile (ileal loop); details: for activity at 500 µM: 0.5 mM; for EC50: rat ileal loop, read-out: TC-uptake Ileal Loop EC(50); for activity at 100 µM: read-out: % of Control Transport of TC in Rat Ileum @ 0.1 mM
Procedure: In Vivo Assay of Compounds that Inhibit Rat Ileal Uptake of [^14C]-Taurocholate into Bile
(See “Metabolism of 3α,7β-dihydroxy-7α-methyl-5β-cholanoic acid and 3α,7β-dihydroxy-7α-methyl-5β-cholanoic acid in hamsters” in Biochimica et Biophysica Acta 833 (1985) 196-202 by Une et al.)
Male wistar rats (200-300 g) are anesthetized with inactin @100 mg/kg. Bile ducts are cannulated with a 10″ length of PE10 tubing. The small intestine is exposed and laid out on a gauze pad. A canulae (⅛″ luer lock, tapered female adapter) is inserted at 12 cm from the junction of the small intestine and the cecum. A slit is cut at 4 cm from this same junction (utilizing a 8 cm length of ileum). 20 ml of warm Dulbecco's phosphate buffered saline, pH 6.5 (PBS) is used to flush out the intestine segment. The distal opening is cannulated with a 20 cm length of silicone tubing (0.02″ I.D.×0.037″ O.D.). The proximal cannulae is hooked up to a peristaltic pump and the intestine is washed for 20 min with warm PBS at 0.25 ml/min. Temperature of the gut segment is monitored continuously. At the start of the experiment, 2.0 ml of control sample ([^14C]-taurocholate @ 0.05 mi/ml with 5 mM cold taurocholate) is loaded into the gut segment with a 3 ml syringe and bile sample collection is begun. Control sample is infused at a rate of 0.25 ml/min for 21 min. Bile samples fractions are collected every 3 minute for the first 27 minutes of the procedure. After the 21 min of sample infusion, the ileal loop is washed out with 20 ml of warm PBS (using a 30 ml syringe), and then the loop is washed out for 21 min with warm PBS at 0.25 ml/min. A second perfusion is initiated as described above but this with test compound being administered as well (21 min administration followed by 21 min of wash out) and bile sampled every 3 min for the first 27 min. If necessary, a third perfusion is performed as above that typically contains the control sample.

[2] = tested on: Rabbit Ileal brush border membranes; test: [3H]taurocholate uptake in rabbit brush border membrane vesicles (BBMV); type: biochemical; details: read-out: TC-uptake (BBMV) IC(50)
Procedure: [^3H]Taurocholate Uptake in Rabbit Brush Border Membrane Vesicles (BBMV)
Rabbit Ileal brush border membranes were prepared from frozen iheal mucosa by the calcium precipitation method describe by Malathi et al. (Reference: (1979) Biochimica Biophysica Acta, 554, 259). The method for measuring taurocholate was essentially as described by Kramer et al. (Reference: (1992) Biochimica Biophysica Acta, 1111, 93) except the assay volume was 200 μl instead of 100 μl.

ACAT = test: Acyl-CoA; cholesterol acyl transferase (ACAT), hamster liver microsomes; type: biochemical; details: read-out: ACAT (liver) IC(50)
Procedure: Acyl-CoA; Cholesterol Acyl Transferase (ACAT)
Hamster liver and rat intestinal microsomes were prepared from tissue as described previously (Reference: (1980) J. Biol. Chem. 255, 9098) and used as a source of ACAT enzyme. The assay consisted of a 2.0 ml incubation containing 24 μM Oleoyl-CoA (0.05 μCi) in a 50 mM sodium phosphate, 2 mM DTT ph 7.4 buffer containing 0.25% BSA and 200 μg of microsomal protein. The assay was initiated by the addition of oleoyl-CoA. The reaction went for 5 min at 37° C. and was terminated by the addition of 8.0 ml of chloroform/methanol (2:1). […] The chloroform phase was taken to dryness and then spotted on a silica gel 60 TLC plate and developed in hexane/ethyl ether (9:1). The amount of cholesterol ester formed was determined by measuring the amount of radioactivity incorporated into the cholesterol oleate spot on the TLC plate with a Packard instaimager.

fecal bile acid (FBA) = test: Rat gavage assay (fecal bile acid increase); type: in vivo
[3] = H14 cells, Table 5, read-out: IC50 uM (In vitro Taurocholate Cell Uptake)
[4] = Table 6, read-out: TC-uptake (H14 cells) IC(50)
[5] = Rattus norvegicus, read-out: % of Control Transport of TC in Rat Ileum
[6] = In Vitro Taurocholate Uptake, Table 10, read-out: Human TC IC50

Compound: CC1(C)CS(=O)(=O)c2ccc(N)cc2[C@@H](c2ccccc2)[C@H]1O [Example 288]
- melting point: 185 to 186 °C
- inhibition at 6.25 µM (H14 cells; @ 6.25 μM, read-out: Alanine Uptake Percent Inhibition @ μM): 10%

Compound: CCCC[C@]1(CC)CS(=O)(=O)c2ccc(NO)cc2[C@@H](c2ccccc2)[C@H]1O [Example 38, (3α,4β,5β) 3-Butyl-3-ethyl-4-hydroxy-7-hydroxyamino-5-phenyl-2,3,4,5-tetrahydrobenzothiepine-1,1-dioxide]
- IC50 (ACAT): 15000 nM
- IC50 (human IBAT; [3]): 0.3 µM
- IC50 (human IBAT; [4]): 0.3 µM
- inhibition at 5 µM (H14 cells; 5 μM): 11%
- activity at 100 µM ([1]; Rattus norvegicus): 20.6%
- EC50 [1]: 12000 nM
- IC50 [2]: 2000 nM

Compound: CCCC[C@]1(CC)CS(=O)(=O)c2cc(OC)ccc2[C@H](c2ccccc2)[C@@H]1O [Example 26, (3α,4α,5α) 3-Butyl-3-ethyl-4-hydroxy-8-methoxy-5-phenyl-2,3,4,5-tetrahydrobenzothiepine-1,1-dioxide]
- IC50 (human IBAT; [3]): 2 µM
- inhibition at 25 µM (H14 cells): 31%
- activity at 100 µM ([1]; Rattus norvegicus): 87.9%

Compound: CCCCC1(CCCC)CS(=O)(=O)c2ccc(N(C)C)cc2[C@@H](c2ccc(OCCCCC[N+](C)(C)CCCCCC[N+](C)(C)CCCCCOc3ccc([C@@H]4c5cc(N(C)C)ccc5S(=O)(=O)CC(CCCC)(CCCC)[C@@H]4O)cc3)cc2)[C@H]1O (relative stereo) [Example 1419, [4R-[4a,5a(4R*,5R*)]]-N,N′-bis[5-[4-[3,3-Dibutyl-7-(dimethylamino)-2,3,4,5-tetrahydro-4-hydroxy-1,1-dioxido-1-benzothiepin-5-yl]phenoxy]pentyl]-N,N,N′N′-tetramethyl-1,6-hexanediaminium dichloride]
- IC50 (human IBAT; [6]): 0.003 µM
- melting point: 178 to 182 °C
- Delta (micromoles fecal bile acid per day) (fecal bile acid (FBA); dose 2 mg/kg/day): 28.5 micromoles fecal bile acid per day
- Delta (micromoles fecal bile acid per day) (fecal bile acid (FBA); dose .016 mg/kg/day): 5.8 micromoles fecal bile acid per day
- Delta (micromoles fecal bile acid per day) (fecal bile acid (FBA); dose .08 mg/kg/day): 10.3 micromoles fecal bile acid per day
- Delta (micromoles fecal bile acid per day) (fecal bile acid (FBA); dose .4 mg/kg/day): 13.9 micromoles fecal bile acid per day

Compound: CCCCC1(CCCC)CS(=O)(=O)c2ccc(N(C)C)cc2[C@@H](c2ccc(OCCCCCOc3cc(C(=O)O)nc(C(=O)O)c3)cc2)[C@H]1O [Example 1421]
- IC50 (human IBAT; [6]): 0.004 µM
- melting point: 143 °C
- Delta (micromoles fecal bile acid per day) (fecal bile acid (FBA); dose 2 mg/kg/day): 57.8 micromoles fecal bile acid per day
- Delta (micromoles fecal bile acid per day) (fecal bile acid (FBA); dose .016 mg/kg/day): 4.7 micromoles fecal bile acid per day
- Delta (micromoles fecal bile acid per day) (fecal bile acid (FBA); dose .08 mg/kg/day): 25.3 micromoles fecal bile acid per day
- Delta (micromoles fecal bile acid per day) (fecal bile acid (FBA); dose .4 mg/kg/day): 27.7 micromoles fecal bile acid per day

Compound: CCCC[C@]1(CC)CS(=O)(=O)c2ccc(OC)cc2[C@@H](c2ccccc2)[C@H]1O [Example 49, (3α,4β,5β) 3-Butyl-3-ethyl-4-hydroxy-7-methoxy-5-phenyl-2,3,4,5-tetrahydrobenzothiepine-1,1-dioxide]
- IC50 (ACAT): 6000 nM
- IC50 (human IBAT; [3]): 0.15 µM
- IC50 (human IBAT; [4]): 0.1 µM
- inhibition at 200 µM (H14 cells; 200 μM): 21%
- activity at 100 µM ([1]; Rattus norvegicus): 21.2%
- EC50 [1]: 12000 nM

Compound: CCCCC1(CCCC)CS(=O)(=O)c2ccc(N(C)C)cc2[C@@H](c2ccc(OCc3cccc(CCC(=O)O)n3)cc2)[C@H]1O [Example 1430, (4R-cis)-6-[[4-[3,3-Dibutyl-7-(dimethylamino)-2,3,4,5-tetrahydro-4-hydroxy-1,1-dioxido-1-benzothiepin-5-yl]phenoxy]methyl]-2-pyridinepropanoic acid]
- IC50 (human IBAT; [6]): 0.003 µM
- melting point: 105 to 107 °C
- Delta (micromoles fecal bile acid per day) (fecal bile acid (FBA); dose 2 mg/kg/day): 51.2 micromoles fecal bile acid per day
- Delta (micromoles fecal bile acid per day) (fecal bile acid (FBA); dose .016 mg/kg/day): −5.6 micromoles fecal bile acid per day
- Delta (micromoles fecal bile acid per day) (fecal bile acid (FBA); dose .08 mg/kg/day): 20.7 micromoles fecal bile acid per day
- Delta (micromoles fecal bile acid per day) (fecal bile acid (FBA); dose .4 mg/kg/day): 50.4 micromoles fecal bile acid per day

More lines, main results first:

- IC50 (human IBAT; [3]): 0.6 µM
- IC50 (human IBAT; [4]): 0.6 µM
- EC50 [1]: 31000 nM
- IC50 [2]: 1500 nM
Compound: CCCC[C@]1(CC)CS(=O)(=O)c2ccccc2[C@@H](c2ccccc2)[C@H]1O [Example 6d, (3α,4β,5β) 3-Butyl-3-ethyl-4-hydroxy-5-phenyl-2,3,4,5-tetrahydrobenzothiepine-1,1-dioxide]
- inhibition at 100 µM (H14 cells): 77.7%
- activity at 150 µM ([1]; Rattus norvegicus, 0.15 mM, read-out: % of Control Transport of TC in Rat Ileum): 30.2%
- activity at 500 µM [1, 5]: 16.1%

- IC50 (human IBAT; [3]): 40 µM
Compound: CCCC[C@]1(CC)CS(=O)(=O)c2ccccc2[C@@H](c2ccccc2)C1=O (relative stereo) [Example 5b, trans-3-Butyl-3-ethyl-5-phenyl-2,3-dihydro-benzothiepin-(5H) 4-one-1,1-dioxide]
- inhibition at 100 µM (H14 cells): 0%
- activity at 500 µM [1, 5]: 72.9 ± 5.4%

- IC50 (human IBAT; [3]): 2 µM
Compound: CCCC[C@]1(CC)CS(=O)(=O)c2ccccc2[C@H](c2ccccc2)[C@@H]1O [Example 6c, (3α,4α,5α) 3-Butyl-3-ethyl-4-hydroxy-5-phenyl-2,3,4,5-tetrahydrobenzothiepine-1,1-dioxide]
- inhibition at 100 µM (H14 cells): 58.5%
- activity at 400 µM ([1]; Rattus norvegicus, 0.4 mM, read-out: % of Control Transport of TC in Rat Ileum): 68.8%

- IC50 (human IBAT; [3]): 5 µM
Compound: CCCC[C@@]1(CC)C[C@@H](c2ccccc2)c2ccccc2S(=O)(=O)C1 (relative stereo) [Example 9a, cis-3-Butyl-3-ethyl-5-phenyl-2,3,4,5-tetrahydrobenzothiepine-1,1-dioxide]
- inhibition at 25 µM (H14 cells): 0%
- activity at 100 µM ([1]; Rattus norvegicus): 53.7%
